# The source made the active and inactive calls.
# Key:
# [1] = ADAM10 protease inhibitors, dose response, selectivity assay for ADAM17 exosite inhibitor project, biochemical, FRET peptide substrate, recombinant human ADAM10 (AID 743259);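 note: ADAM10 enzyme cleaving a FRET peptide substrate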
# [2] = target: Disintegrin and metalloproteinase domain-containing protein 17 (Homo sapiens, UniProt P78536); test: exosite inhibitors of ADAM17, dose response, biochemical (AID 743260)
# Fatty acid synthase [3] = target: T1, Fatty acid synthase (Homo sapiens, UniProt P49327); test: FAS thioesterase domain inhibitors, dose response, biochemical, endpoint fluorescence intensity, uHTS hits (AID 624327); type: functional;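 note: fluorescence from hydrolysis of an O-methyl fluorescein acyl ester substrate by the enzyme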
# T1 sequence (P49327 whole entry, the tested form may be a part): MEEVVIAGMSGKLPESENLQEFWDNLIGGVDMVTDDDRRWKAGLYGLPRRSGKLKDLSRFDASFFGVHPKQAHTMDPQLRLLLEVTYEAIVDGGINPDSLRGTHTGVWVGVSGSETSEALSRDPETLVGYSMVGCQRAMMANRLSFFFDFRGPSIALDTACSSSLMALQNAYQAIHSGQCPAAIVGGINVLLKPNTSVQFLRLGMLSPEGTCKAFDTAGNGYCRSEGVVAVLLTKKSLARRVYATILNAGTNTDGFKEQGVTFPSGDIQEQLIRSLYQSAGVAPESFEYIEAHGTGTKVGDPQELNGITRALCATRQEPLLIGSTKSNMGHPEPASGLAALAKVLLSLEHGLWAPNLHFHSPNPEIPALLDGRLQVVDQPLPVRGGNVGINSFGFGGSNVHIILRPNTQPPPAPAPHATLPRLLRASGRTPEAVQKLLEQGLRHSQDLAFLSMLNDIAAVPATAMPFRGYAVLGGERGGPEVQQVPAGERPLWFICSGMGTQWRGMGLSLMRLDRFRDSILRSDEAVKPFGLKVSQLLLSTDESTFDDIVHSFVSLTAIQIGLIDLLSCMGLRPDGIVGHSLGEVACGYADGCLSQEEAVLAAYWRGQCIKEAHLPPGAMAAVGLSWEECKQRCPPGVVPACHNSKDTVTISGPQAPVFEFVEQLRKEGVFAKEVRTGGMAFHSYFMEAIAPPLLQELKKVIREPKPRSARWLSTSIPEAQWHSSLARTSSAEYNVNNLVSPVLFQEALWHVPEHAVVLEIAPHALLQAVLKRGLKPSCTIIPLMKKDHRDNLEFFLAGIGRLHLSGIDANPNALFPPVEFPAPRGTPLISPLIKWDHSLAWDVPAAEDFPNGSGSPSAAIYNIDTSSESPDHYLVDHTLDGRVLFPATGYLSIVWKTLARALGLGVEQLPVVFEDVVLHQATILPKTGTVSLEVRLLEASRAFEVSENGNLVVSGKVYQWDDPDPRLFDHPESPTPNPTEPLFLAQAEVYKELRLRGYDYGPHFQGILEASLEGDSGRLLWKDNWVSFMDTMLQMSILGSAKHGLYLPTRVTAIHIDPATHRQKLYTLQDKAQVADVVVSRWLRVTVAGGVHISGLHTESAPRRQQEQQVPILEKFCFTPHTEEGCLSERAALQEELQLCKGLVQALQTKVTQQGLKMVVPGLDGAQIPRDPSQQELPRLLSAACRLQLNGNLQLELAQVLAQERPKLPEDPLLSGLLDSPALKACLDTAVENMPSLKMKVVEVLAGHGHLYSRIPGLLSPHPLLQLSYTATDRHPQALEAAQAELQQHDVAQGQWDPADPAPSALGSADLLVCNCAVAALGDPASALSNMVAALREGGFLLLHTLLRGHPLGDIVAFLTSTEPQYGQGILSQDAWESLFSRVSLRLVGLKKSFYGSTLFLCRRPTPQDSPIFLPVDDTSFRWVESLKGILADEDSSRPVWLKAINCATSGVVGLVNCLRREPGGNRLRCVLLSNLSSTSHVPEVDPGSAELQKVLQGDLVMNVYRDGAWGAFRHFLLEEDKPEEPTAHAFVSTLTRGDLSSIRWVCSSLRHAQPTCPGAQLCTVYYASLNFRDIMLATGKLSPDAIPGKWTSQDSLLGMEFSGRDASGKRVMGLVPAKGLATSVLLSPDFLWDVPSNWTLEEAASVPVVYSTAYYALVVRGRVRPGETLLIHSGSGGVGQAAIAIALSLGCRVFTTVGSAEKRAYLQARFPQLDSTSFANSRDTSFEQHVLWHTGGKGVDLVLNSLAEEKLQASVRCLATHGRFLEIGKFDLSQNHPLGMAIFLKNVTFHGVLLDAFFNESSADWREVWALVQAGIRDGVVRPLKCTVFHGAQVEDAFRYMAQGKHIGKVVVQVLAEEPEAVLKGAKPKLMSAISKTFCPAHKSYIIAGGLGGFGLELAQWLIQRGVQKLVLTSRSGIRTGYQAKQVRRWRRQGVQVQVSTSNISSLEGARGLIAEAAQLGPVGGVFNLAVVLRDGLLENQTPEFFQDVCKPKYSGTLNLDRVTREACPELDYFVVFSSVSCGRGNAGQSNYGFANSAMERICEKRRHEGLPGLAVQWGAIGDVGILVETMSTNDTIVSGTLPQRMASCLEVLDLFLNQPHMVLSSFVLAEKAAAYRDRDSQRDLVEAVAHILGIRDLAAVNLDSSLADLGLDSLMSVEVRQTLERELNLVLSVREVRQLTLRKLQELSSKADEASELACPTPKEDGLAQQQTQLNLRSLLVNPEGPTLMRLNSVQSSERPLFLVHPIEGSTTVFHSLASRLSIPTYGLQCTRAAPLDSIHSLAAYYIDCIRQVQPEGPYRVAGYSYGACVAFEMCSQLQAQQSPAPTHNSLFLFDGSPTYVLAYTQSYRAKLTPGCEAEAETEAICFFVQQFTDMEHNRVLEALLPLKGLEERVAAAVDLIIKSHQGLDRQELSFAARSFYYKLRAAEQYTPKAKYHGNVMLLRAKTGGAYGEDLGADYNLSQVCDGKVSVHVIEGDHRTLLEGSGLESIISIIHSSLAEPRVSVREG
# Fatty acid synthase [4] = target: T1, Fatty acid synthase; test: FAS thioesterase domain inhibitors, dose response, biochemical, kinetic fluorescence intensity (AID 624326); type: functional;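 note: rate of fluorescence rise from hydrolysis of a fluorogenic O-methyl fluorescein ester substrate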
# [5] = A2780 ovarian cancer cell cytotoxicity, dose response, cytotoxicity control, plate reader, dry powder samples (AID 743046); type: functional, cell-based
# Paired box protein Pax-8 = Paired box protein Pax-8 (Homo sapiens, UniProt Q06710); test: inhibitors of PAX8-driven TPO luciferase reporter, dose response, RMG-I cells, cherry-pick (AID 687027); type: functional, cell-based;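 note: luciferase reporter driven by Pax8 target thyroperoxidase promoter measured by SteadyGlo luminescence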
# Paired box protein Pax-8, sequence (Q06710 whole entry): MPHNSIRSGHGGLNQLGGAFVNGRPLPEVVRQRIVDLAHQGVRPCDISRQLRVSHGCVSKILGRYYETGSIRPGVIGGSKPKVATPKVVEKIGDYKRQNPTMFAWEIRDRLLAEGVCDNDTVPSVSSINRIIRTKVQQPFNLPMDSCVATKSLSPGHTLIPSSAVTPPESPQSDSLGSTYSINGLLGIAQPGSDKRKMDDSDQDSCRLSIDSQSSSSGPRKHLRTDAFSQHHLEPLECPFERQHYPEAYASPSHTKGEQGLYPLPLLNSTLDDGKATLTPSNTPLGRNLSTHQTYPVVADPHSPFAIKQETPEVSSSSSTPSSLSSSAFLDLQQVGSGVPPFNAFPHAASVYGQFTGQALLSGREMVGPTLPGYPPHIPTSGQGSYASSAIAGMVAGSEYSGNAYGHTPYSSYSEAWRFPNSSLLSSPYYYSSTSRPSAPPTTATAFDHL
# [6] = target: Luciferin 4-monooxygenase (Photinus pyralis, UniProt P08659); test: firefly luciferase enzyme inhibitors, dose response, biochemical, luminescence (AID 1891)
# Luciferin 4-monooxygenase, sequence (P08659 whole entry): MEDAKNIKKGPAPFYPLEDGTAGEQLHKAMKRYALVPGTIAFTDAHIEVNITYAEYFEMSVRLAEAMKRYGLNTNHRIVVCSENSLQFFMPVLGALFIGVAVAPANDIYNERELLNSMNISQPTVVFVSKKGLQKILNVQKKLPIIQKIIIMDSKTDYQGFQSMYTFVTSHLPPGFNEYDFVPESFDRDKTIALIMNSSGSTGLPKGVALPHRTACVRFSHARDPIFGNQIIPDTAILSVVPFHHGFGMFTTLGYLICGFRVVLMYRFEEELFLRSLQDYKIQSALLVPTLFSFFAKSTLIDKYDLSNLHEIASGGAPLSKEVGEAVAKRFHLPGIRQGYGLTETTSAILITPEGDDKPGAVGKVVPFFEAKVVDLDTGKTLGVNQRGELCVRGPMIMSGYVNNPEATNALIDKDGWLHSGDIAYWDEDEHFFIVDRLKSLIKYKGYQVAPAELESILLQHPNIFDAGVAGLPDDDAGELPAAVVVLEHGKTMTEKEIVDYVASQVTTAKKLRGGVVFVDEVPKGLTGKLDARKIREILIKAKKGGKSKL
# [7] = Luminescence Cell-Based Dose Confirmation HTS to Identify Inhibitors of Platelet Dense Granule Release. [Related pubchem assays: 1663 (Primary HTS), 1678 (Summary of Project)]; type: functional
# Caspase-6 = target: T2, Caspase-6 (Homo sapiens, UniProt P55212); test: human caspase-6 inhibitors, dose response, biochemical, VEID-R110 fluorescence, cherry-pick (AID 720632)
# T2 sequence (P55212 whole entry): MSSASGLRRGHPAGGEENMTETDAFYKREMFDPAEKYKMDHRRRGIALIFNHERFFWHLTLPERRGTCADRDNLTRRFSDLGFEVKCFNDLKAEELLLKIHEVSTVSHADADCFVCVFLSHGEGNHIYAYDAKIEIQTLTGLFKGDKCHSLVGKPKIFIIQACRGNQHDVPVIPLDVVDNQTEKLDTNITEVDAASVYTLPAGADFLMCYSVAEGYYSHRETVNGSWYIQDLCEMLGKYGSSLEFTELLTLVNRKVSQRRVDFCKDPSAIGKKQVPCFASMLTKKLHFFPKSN
# [8] = HeLa cell cytotoxicity, dose response, cytotoxicity control for MgcRacGAP inhibitor project (AID 624300); type: functional
# [9] = target: T3, Rac GTPase-activating protein 1 (Homo sapiens, UniProt Q9H0H5); test: MgcRacGAP GTPase-activating activity inhibitors, confirmation, biochemical, ADP Hunter fluorescence, primary and confirmatory (AID 624330); type: functional
# T3 sequence (Q9H0H5 whole entry): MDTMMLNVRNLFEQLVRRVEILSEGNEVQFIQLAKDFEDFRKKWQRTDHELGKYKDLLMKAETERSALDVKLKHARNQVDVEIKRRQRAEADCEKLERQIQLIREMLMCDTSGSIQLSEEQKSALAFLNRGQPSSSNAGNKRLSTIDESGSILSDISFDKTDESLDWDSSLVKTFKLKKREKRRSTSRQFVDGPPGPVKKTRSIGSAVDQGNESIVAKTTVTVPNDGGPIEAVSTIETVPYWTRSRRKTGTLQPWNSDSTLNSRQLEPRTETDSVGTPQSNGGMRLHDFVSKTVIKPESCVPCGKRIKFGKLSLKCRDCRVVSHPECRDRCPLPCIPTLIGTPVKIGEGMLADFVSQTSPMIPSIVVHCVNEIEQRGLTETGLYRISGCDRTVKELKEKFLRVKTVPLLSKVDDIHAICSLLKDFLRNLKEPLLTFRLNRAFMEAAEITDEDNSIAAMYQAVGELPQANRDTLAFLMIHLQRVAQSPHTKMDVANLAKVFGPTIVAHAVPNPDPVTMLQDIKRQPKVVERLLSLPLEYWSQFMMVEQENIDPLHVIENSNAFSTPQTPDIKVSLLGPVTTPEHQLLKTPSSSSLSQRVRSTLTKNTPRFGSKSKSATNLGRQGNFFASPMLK
# [10] = target: T4, Tyrosyl-DNA phosphodiesterase 2 (Homo sapiens, UniProt O95551); test: human TDP2 enzyme inhibitors, dose response, biochemical, epi absorbance, IC50 (AID 743297)
# T4 sequence (O95551 whole entry): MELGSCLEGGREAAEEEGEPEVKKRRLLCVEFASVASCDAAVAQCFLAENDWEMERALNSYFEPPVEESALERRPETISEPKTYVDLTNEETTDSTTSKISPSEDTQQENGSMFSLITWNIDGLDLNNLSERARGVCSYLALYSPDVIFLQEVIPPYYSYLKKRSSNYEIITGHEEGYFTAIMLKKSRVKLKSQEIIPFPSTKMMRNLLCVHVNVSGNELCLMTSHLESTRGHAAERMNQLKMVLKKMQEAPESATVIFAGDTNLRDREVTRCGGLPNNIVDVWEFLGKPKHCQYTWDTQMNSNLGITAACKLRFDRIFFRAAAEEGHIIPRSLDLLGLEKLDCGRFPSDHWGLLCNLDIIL
# [11] = inhibitors of Vif binding to APOBEC3G peptide, primary screen, biochemical, TR-FRET, GST-Vif 1-94, biotin-A3G peptide, dose response retest (AID 1117319); type: functional;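 note: TR-FRET signal of purified GST-Vif binding a biotinylated A3G peptide; inhibitors lower the FRET signal by blocking Vif and A3G binding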
# [12] = target: T5, Low molecular weight phosphotyrosine protein phosphatase (Homo sapiens, UniProt P24666); type: functional; conditions: read-out: IC50_Mean;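 note: Dose-response confirmation assay measuring inhibition of LMPTP enzyme activity by fluorescence intensity read-out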
# T5 sequence (P24666 whole entry): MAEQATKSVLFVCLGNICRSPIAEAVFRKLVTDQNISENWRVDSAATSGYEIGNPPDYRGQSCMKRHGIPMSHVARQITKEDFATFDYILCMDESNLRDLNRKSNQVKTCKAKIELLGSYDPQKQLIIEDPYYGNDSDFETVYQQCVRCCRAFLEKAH
# Disintegrin and metalloproteinase domain-containing protein 17, sequence (P78536 whole entry, the tested form may be a part): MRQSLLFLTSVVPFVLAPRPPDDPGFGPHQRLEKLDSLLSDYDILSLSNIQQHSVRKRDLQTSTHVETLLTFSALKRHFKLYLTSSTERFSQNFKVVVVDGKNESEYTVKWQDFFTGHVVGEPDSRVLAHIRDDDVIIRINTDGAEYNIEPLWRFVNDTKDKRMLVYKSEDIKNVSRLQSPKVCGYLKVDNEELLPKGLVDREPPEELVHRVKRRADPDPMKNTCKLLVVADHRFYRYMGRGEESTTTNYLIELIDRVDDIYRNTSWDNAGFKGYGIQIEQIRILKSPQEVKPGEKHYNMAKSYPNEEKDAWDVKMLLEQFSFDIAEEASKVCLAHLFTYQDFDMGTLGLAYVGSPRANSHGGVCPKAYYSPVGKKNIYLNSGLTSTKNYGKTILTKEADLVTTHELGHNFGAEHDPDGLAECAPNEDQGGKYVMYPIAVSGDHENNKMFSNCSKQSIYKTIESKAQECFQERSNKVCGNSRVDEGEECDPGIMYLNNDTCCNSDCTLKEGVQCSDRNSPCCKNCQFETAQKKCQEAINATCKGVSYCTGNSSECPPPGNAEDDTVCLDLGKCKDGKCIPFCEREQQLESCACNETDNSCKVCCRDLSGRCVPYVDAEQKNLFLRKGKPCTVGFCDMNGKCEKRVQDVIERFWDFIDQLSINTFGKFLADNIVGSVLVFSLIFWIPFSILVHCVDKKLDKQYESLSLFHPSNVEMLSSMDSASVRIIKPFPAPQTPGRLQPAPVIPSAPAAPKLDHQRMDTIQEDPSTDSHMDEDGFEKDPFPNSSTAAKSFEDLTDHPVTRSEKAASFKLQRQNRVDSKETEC
smiles,measurement,setting,value
Cc1ccc(S(=O)(=O)N2CCC(=O)N([C@H](COC(=O)Nc3ccccc3)Cc3ccccc3)CC2)cc1,IC50,[1],> 7.72 µM (active)
same,IC50,[2],> 69.4 µM (inactive)
O=C(COC(=O)c1cc([N+](=O)[O-])ccc1NCCO)NCc1cccs1,IC50,Fatty acid synthase [3],3.84 µM (active)
same,IC50,Fatty acid synthase [4],1.68 µM (active)
C[C@@H]1CN([C@H](C)CO)C(=O)c2c(c3ccccc3n2C)-c2ccccc2CO[C@H]1CN(C)S(=O)(=O)c1cccc(F)c1,AC50,[5],4.51 µM (active)
same,AC50,Paired box protein Pax-8,19.2 µM (active)
O=C(O)C1C2C=CC(C2)C1C(=O)NCc1cccs1 (stereo not drawn),EC50,[6],> 112 µM (not active)
same,EC50,[7],> 112 µM (not active)
same,AC50,Caspase-6,14.8 µM (active)
CCN(CC)c1ccc(Nc2nc(Cl)ncc2Br)cc1,CC50,[8],100 µM (active)
same,IC50,[9],50.3 µM (active)
Cc1cccc(NC(=O)CSc2nnc(SCc3ccc(Cl)cc3)s2)c1,IC50,[1],> 69.4 µM (inactive)
same,IC50,[2],> 69.4 µM (inactive)
Cc1ccc(S(=O)(=O)/N=C(\Sc2ccccc2)c2ccccc2)cc1,IC50,Fatty acid synthase [3],11 µM (active)
same,IC50,Fatty acid synthase [4],54 µM (inactive)
Clc1ccccc1N=Nc1ccccn1,IC50,[10],> 128 µM (inactive)
same,IC50,[11],> 100 µM (active)
O=C(CCCN1C(=O)C(=Cc2ccc3c(c2)OCO3)SC1=S)Nc1ccc(C(=O)O)c(O)c1,IC50,[12],80 µM (inactive)

# Reference: ChEMBL document CHEMBL1201862, “PubChem BioAssay data set” (2004)
